# From ChEMBL document CHEMBL3879883, “GPR 17 agonists and screening assay” (2013)
# Calls of active or inactive are those of the source. No cut-off for these calls is given here.
# How the values were obtained:
# [1] = biological target: T1, Uracil nucleotide/cysteinyl leukotriene receptor (Homo sapiens, UniProt Q13304); experiment: Agonist activity at recombinant human GPR17 short isoform transfected in CHO cells assessed as mobilization of intracellular Ca2+ after 20 mins by oregon green 488 BAPTA-1/AM dye-based fluorescence assay; type: functional, cell-based
# T1 sequence (Q13304 whole entry, canonical isoform): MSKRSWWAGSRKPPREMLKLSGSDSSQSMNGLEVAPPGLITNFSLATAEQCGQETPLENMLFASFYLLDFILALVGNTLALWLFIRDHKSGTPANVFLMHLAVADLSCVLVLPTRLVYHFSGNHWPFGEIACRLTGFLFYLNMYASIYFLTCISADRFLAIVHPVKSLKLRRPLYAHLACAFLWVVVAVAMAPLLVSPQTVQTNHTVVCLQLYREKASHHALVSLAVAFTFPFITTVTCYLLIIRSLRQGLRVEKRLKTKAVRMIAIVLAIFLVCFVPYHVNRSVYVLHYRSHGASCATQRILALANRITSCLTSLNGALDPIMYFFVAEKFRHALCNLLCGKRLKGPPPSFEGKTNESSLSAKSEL
# [2] = Effect on Ca2+ mobilization in GPR17 deficient human 1321N1 cells at 0.3 uM after 20 mins by oregon green 488 BAPTA-1/AM dye-based fluorescence assay; type: functional
# [3] = tested on: CHO-K1; experiment: Effect on Ca2+ mobilization in GPR17 deficient CHOK1 cells at 0.3 uM after 20 mins by oregon green 488 BAPTA-1/AM dye-based fluorescence assay; type: functional, Cricetulus griseus
# [4] = biological target: T1, Uracil nucleotide/cysteinyl leukotriene receptor; experiment: Agonist activity at recombinant human GPR17 short isoform transfected in CHO cells assessed as mobilization of intracellular Ca2+ at 1 uM after 20 mins by oregon green 488 BAPTA-1/AM dye-based fluorescence assay relative to control; type: functional, cell-based
# [5] = biological target: T1, Uracil nucleotide/cysteinyl leukotriene receptor; experiment: Agonist activity at recombinant human GPR17 short isoform transfected in human 1321N1 cells assessed as mobilization of intracellular Ca2+ at 1 uM after 20 mins by oregon green 488 BAPTA-1/AM dye-based fluorescence assay relative to control; type: functional, cell-based
# [6] = tested on: CHO-K1; experiment: Effect on Ca2+ mobilization in GPR17 deficient CHOK1 cells at 3 uM after 20 mins by oregon green 488 BAPTA-1/AM dye-based fluorescence assay; type: functional, Cricetulus griseus
# [7] = biological target: T1, Uracil nucleotide/cysteinyl leukotriene receptor; experiment: Agonist activity at recombinant human GPR17 short isoform transfected in human 1321N1 cells assessed as mobilization of intracellular Ca2+ at 3 uM after 20 mins by oregon green 488 BAPTA-1/AM dye-based fluorescence assay relative to control; type: functional, cell-based
# [8] = Effect on Ca2+ mobilization in GPR17 deficient human 1321N1 cells at 3 uM after 20 mins by oregon green 488 BAPTA-1/AM dye-based fluorescence assay; type: functional
# [9] = biological target: T1, Uracil nucleotide/cysteinyl leukotriene receptor; experiment: Agonist activity at recombinant human GPR17 short isoform transfected in CHO cells assessed as mobilization of intracellular Ca2+ at 3 uM after 20 mins by oregon green 488 BAPTA-1/AM dye-based fluorescence assay relative to control; type: functional, cell-based
# [10] = biological target: T1, Uracil nucleotide/cysteinyl leukotriene receptor; experiment: Agonist activity at recombinant human GPR17 short isoform transfected in human 1321N1 cells assessed as mobilization of intracellular Ca2+ at 10 uM after 20 mins by oregon green 488 BAPTA-1/AM dye-based fluorescence assay relative to control; type: functional, cell-based
# [11] = biological target: T1, Uracil nucleotide/cysteinyl leukotriene receptor; experiment: Agonist activity at recombinant human GPR17 short isoform transfected in CHO cells assessed as mobilization of intracellular Ca2+ at 0.3 uM after 20 mins by oregon green 488 BAPTA-1/AM dye-based fluorescence assay relative to control; type: functional, cell-based
# [12] = biological target: T1, Uracil nucleotide/cysteinyl leukotriene receptor; experiment: Antagonist activity at recombinant human GPR17 short isoform transfected in CHO cells assessed as inhibition of RA-II-150-mediated intracellular Ca2+ mobilization preincubated for 5 to 30 mins followed by RA-II-150 addition measured after 20 mins by oregon green 488 BAPTA-1/AM dye-based fluorescence assay; type: functional, cell-based
# [13] = tested on: CHO-K1; experiment: Effect on Ca2+ mobilization in GPR17 deficient CHOK1 cells at 1 uM after 20 mins by oregon green 488 BAPTA-1/AM dye-based fluorescence assay; type: functional, Cricetulus griseus
# [14] = Effect on Ca2+ mobilization in GPR17 deficient human 1321N1 cells at 1 uM after 20 mins by oregon green 488 BAPTA-1/AM dye-based fluorescence assay; type: functional
# [15] = biological target: T1, Uracil nucleotide/cysteinyl leukotriene receptor; experiment: Agonist activity at recombinant human GPR17 short isoform transfected in human 1321N1 cells assessed as mobilization of intracellular Ca2+ after 20 mins by oregon green 488 BAPTA-1/AM dye-based fluorescence assay; type: functional, cell-based
# [16] = tested on: CHO; experiment: Inhibition of forskolin-stimulated intracellular cAMP accumulation in CHO cells after 30 mins by FRET assay; type: functional, cell-based; conditions: Cricetulus griseus
# [17] = biological target: T1, Uracil nucleotide/cysteinyl leukotriene receptor; experiment: Agonist activity at recombinant human GPR17 short isoform transfected in CHO cells assessed as inhibition of forskolin-stimulated intracellular cAMP accumulation after 30 mins by FRET assay; type: functional, cell-based
# [18] = Effect on Ca2+ mobilization in GPR17 deficient human 1321N1 cells at 0.1 uM after 20 mins by oregon green 488 BAPTA-1/AM dye-based fluorescence assay; type: functional
# [19] = tested on: CHO-K1; experiment: Effect on Ca2+ mobilization in GPR17 deficient CHOK1 cells at 0.1 uM after 20 mins by oregon green 488 BAPTA-1/AM dye-based fluorescence assay; type: functional, Cricetulus griseus
smiles,measurement,setting,value
O=C(O)CCc1c(C(=O)O)[nH]c2cc(Br)ccc12,EC50,[1],3.16 µM
O=C(O)CCc1c(C(=O)O)[nH]c2cc(Cl)ccc12,Activity,[2],4%
same,Activity,[3],1%
same,Activity,[4],94%
same,Activity,[5],84%
O=C(O)CCc1c(C(=O)O)[nH]c2cc(-c3ccccc3)cc(-c3ccccc3)c12,EC50,[1],3.02 µM
O=C(O)CCc1c(C(=O)O)[nH]c2cc(F)cc(F)c12,Activity,[6],1%
same,Activity,[7],77%
same,Activity,[8],2%
same,Activity,[9],97%
O=C(O)CCc1c(C(=O)O)[nH]c2cc(Br)cc(Br)c12,Activity,[2],0%
same,Activity,[3],0%
same,Activity,[10],106%
same,Activity,[11],89%
O=C(Nc1cccc2c(=O)cc(-c3nnn[nH]3)oc12)c1ccc(OCCCCc2ccccc2)cc1,inhibition,[12],Dose-dependent effect
O=C(O)CCc1c(C(=O)O)[nH]c2cc(I)cc(I)c12,EC50,[1],4.79 µM
Cc1cc(C)c2c(CCC(=O)O)c(C(=O)O)[nH]c2c1,Activity,[13],1%
same,Activity,[4],68%
same,Activity,[5],76%
same,Activity,[14],1%
O=C(O)CCc1c(C(=O)O)n(CCC(=O)O)c2cc(Cl)cc(Cl)c12,EC50,[15],5.25 µM
same,Activity,[13],1%
same,Activity,[4],85%
same,EC50,[1],0.186 µM
same,Activity,[5],80%
same,Activity,[14],1%
O=C(O)CCc1c(C(=O)O)[nH]c2cc(I)ccc12,EC50,[1],0.708 µM
NCC(=O)CCC(=O)O,inhibition,[16],Active
same,inhibition,[17],Active
O=C(O)CCc1c(C(=O)O)[nH]c2cc(Cl)cc(Cl)c12,Activity,[11],100%
same,Activity,[18],0%
same,Activity,[19],0%
O=C(O)CCc1c(C(=O)O)[nH]c2cc(-c3ccccc3)ccc12,EC50,[1],0.724 µM
